Here are results for 15 compounds from article PMC9504950, “In Vitro and In Silico Analyses of New Cinnamid and Rosmarinic Acid-Derived Compounds Biosynthesized in Escherichia coli as Leishmania amazonensis Arginase Inhibitors” (Pathogens, 2022).

“And” between values parts separate entries of the source, which are not always exact repeats. Equal values may be shown once. Read-outs that look alike come from different tables or passages of the source.

The target in assay [1] is T1, L. amazonensis arginase (L-ARG) (Leishmania amazonensis, UniProt O96394). The conditions noted are these: cited from earlier work.
A further assay has as its system L. amazonensis. On the set-up: method as in PMID 24906989. The conditions noted are these: BALB/c mice, cutaneous leishmaniasis; cited from earlier work.
The subject of assay [2] is promastigotes and amastigotes of L. amazonensis. The conditions noted are these: cited from earlier work.
Assay [3] concerns the target T1, L. amazonensis arginase (L-ARG). As to the kind of experiment: Recombinant L. amazonensis arginase (L-ARG) inhibition, IC50. Type of assay: biochemical. The conditions noted are these: for fold decrease of enzyme inhibition relative to compound 4: compared with compound 4; for IC50: mean ± SEM. Here is the method:
(§1) Recombinant L-ARG was expressed and purified as previously described. A stock solution of 70 mM was prepared in DMSO and was stored at −20 °C for each compound just before the experiment. The concentration that inhibited 50% of the catalytic activity of the enzyme (IC50) was determined using an inhibitor concentration from 200 μM to 0.05 μM; the concentrations were obtained via a serial dilution in water (1:4). The kinetics were determined using three concentrations of the substrate and three concentrations of inhibitor, as previously described. Two independent experiments were performed in triplicate with a coefficient of nonlinear regression R^2 ≥ 0.85. The sigmoidal model (log IC50) was used to determine the IC50 using GraphPad Prism 7 software for Windows (San Diego, CA, USA).

The target is the same in assay [4]. In words: Kinetics of arginase inhibition (Dixon and Cornish-Bowden plots). In kind it is biochemical. The conditions noted are these: for Mechanism of Inhibition: Dixon and Cornish-Bowden plots; for Ki: Dixon plots, L-arginine 100, 50 and 25 mM. The method, then: The enzyme kinetics were performed to determine the mechanism of inhibition and the dissociation constant (Ki) of the compounds via the simultaneous analysis of the Dixon and Cornish-Bowden plots. The Ki inhibition constants (complex EI), which refer to the equilibriums established between the […] in the presence of an inhibitor (I), were determined (Table 1).
as §1
Figure 1 Kinetics of the arginase inhibition by compounds 2–4, 7, and 9. The mechanism of action was determined by an analysis of the Dixon (A) and Cornish-Bowden plots (B); the Ki constant was measured using Dixon plots by calculating the X values at the intersection point of the lines. […] Each drawn point represents the mean of three independent experiments (n = 3) performed in duplicate.

Where [5] appears, read: recombinant L-ARG, read-out: IC50.

Take `O=C(/C=C/c1ccc(O)c(O)c1)O[C@H](Cc1ccc(O)c(O)c1)C(=O)O` [rosmarinic acid]: the “L-ARG inhibition (in words)” value in assay [1] is reported as “inhibitory profile”. Moreover, in the assay with L. amazonensis, the “lesion size and parasite burden” value was “effective in reducing the lesion size and parasite burden”. For the same compound, in assay [2], the “activity against the promastigotes and amastigotes of L. amazonensis” value (“activity … of L. amazonensis” below) is given as “active”.
Usually IC50 stands for the point on the concentration scale where inhibition reaches its midpoint. `O=C(CCc1ccc(O)cc1)O[C@H](Cc1ccc(O)cc1)C(=O)O` [Compound 5]: the “fold decrease of enzyme inhibition relative to compound 4” value in assay [3] is reported as “at least 100 times”. Besides, the “L-ARG inhibition (in words)” value in assay [3] (recombinant L-ARG) is reported as “weak inhibition”. Moreover, in assay [3] (setting [5]), the IC50 was more than 200 µM.
Turning to `COc1cc(/C=C/C(=O)O)ccc1O` [ferulic acid], in the assay on L. amazonensis, the “lesion size and parasite burden” value was “effective in reducing the lesion size and parasite burden”. Besides, the “activity … of L. amazonensis” value in assay [2] is on record as “active”.
For `O=C(CCc1ccc(O)cc1)Nc1cc(Cl)ccc1C(=O)O` [Compound 10], the IC50 entry in assay [3] (recombinant L-ARG) is “Inactive”.
`O=C(/C=C/c1ccc(O)c(O)c1)O[C@@H]1C[C@](O)(C(=O)O)C[C@@H](O)[C@H]1O` [chlorogenic acid]: in assay [2], the “activity … of L. amazonensis” value is recorded as “active”.
A word on the Ki: it is a dissociation constant, usually derived from enzyme kinetics or from competition with a known ligand. Low readings indicate higher affinity, high ones lower affinity. For `O=C(CCc1ccc(O)c(O)c1)O[C@H](Cc1ccc(O)cc1)C(=O)O` [Compound 4], the IC50 in assay [3] (setting [5]) worked out at 1.9 ± 0.7 µM. Further, in assay [4], the “Mechanism of Inhibition” value is on record as “Noncompetitive” and the Ki worked out at 2 ± 0.6 µM.
Turning to `C[C@@H]1O[C@@H](O[C@@H]2[C@@H](O)[C@H](OCCc3ccc(O)c(O)c3)O[C@H](CO)[C@H]2OC(=O)/C=C/c2ccc(O)c(O)c2)[C@H](O)[C@H](O)[C@H]1O` [verbascoside], in assay [1], the “L-ARG inhibition (in words)” value was “inhibits”. Also, the “activity against promastigote and intracellular amastigotes of the parasite” value in assay [2] was “active”.
Turning to `O=C(O)CC(OC(=O)/C=C/c1ccc(O)c(O)c1)C(=O)O` (stereo not shown) [Compound 7], the “fold decrease of enzyme inhibition relative to compound 4” value in assay [3] was “approximately 20 times”. Moreover, the half-maximal inhibitory concentration (IC50) in assay [3] (setting [5]) is 36.2 µM and 36 µM. Further, in assay [4], the “Mechanism of Inhibition” value is recorded as “Noncompetitive” and the inhibition constant Ki came out at 74 ± 8 µM.
As for `O=C(CCc1ccc(O)c(O)c1)O[C@H](Cc1ccccc1)C(=O)O` [Compound 2], in assay [3] (setting [5]), the IC50 was found to be 2.8 ± 0.9 µM. Moreover, in assay [4], the “Mechanism of Inhibition” value was “Noncompetitive” and affinity was put at a Ki of 5.7 ± 0.7 µM.
For the compound `O=C(/C=C/c1ccc(O)cc1)O[C@H](Cc1ccccc1)C(=O)O` [Compound 1], the IC50 result in assay [3] (recombinant L-ARG) is given as “Inactive”.
Same read-out and setting: the same measure for `O=C(CCc1ccc(O)cc1)O[C@H](Cc1ccccc1)C(=O)O` [Compound 6]: “Inactive”.
In the case of `O=C(O)/C=C/c1ccc(O)c(O)c1` [caffeic acid], in assay [1], the “L-ARG inhibition (in words)” value is on record as “inhibitory profile”. Besides, in the assay on L. amazonensis, the “lesion size and parasite burden” value is “effective in reducing the lesion size and parasite burden”. Moreover, the “activity … of L. amazonensis” value in assay [2] was “active”.
`O=C(/C=C/c1ccc(O)cc1)Nc1cc(Cl)ccc1C(=O)O` [Compound 8]: the IC50 entry in assay [3] (recombinant L-ARG) is “Inactive”.
As for `O=C(CCc1ccc(O)c(O)c1)O[C@H](Cc1ccc(O)c(O)c1)C(=O)O` [Compound 3], the half-maximal inhibitory concentration (IC50) in assay [3] (setting [5]) was 3 ± 0.2 µM. For the same compound, in assay [4], the “Mechanism of Inhibition” value is given as “Noncompetitive” and the Ki amounted to 3.9 ± 0.4 µM.
Taken in the same sequence, the figures for `O=C(/C=C/c1ccc(O)c(O)c1)Nc1cc(F)c(F)cc1C(=O)O` [Compound 9] were 5.5 ± 0.5 µM, “Competitive” and 4.6 ± 1.7 µM.
